Patent US8197864B2, “Preparation, process and a regenerative method and technique for prevention, treatment and glycemic control of diabetes mellitus” (Arjuna Natural Extracts, priority 2004, dated 2012)

Test system: normal rats
Test: Hypoglycemic activity of fractions on blood sugar level in fasted normal rats
Format: in vivo, Sprague dawley rats
Settings: glybenclamide 1 mg/kg, metformin 150 mg/kg; for blood sugar level, 1 hr: 1 hr after single oral dose: fractions 100 mg/kg; for blood sugar level, 3 hr: 3 hr after single oral dose: fractions 100 mg/kg; for blood sugar level, 5 hr: 5 hr after single oral dose: fractions 100 mg/kg; for blood sugar level, Fasting: fasting value before administration, single oral dose: fractions 100 mg/kg; for effect on blood glucose level (in words): single oral dose after 4 hours of fasting: fractions 100 mg/kg
Protocol: Activity of different extracts were tested using Sprague dawley rats of either sex aged 3 months weighing 180-200 g. After 3-4 hrs of fasting the rats were divided into 7 groups of 6 in each, one group kept as control and 4 groups were given different fractions (Fraction I, Fraction III, Fraction IV and Fraction V) of extract in the dose of 100 mg/kg. Sixth and seventh groups were given standard drugs glybenclamide (1 mg/kg) and metformin (150 mg/kg) respectively.
(See Table II, graph I) The extract/drug was administered orally (single dose) after 4 hours of fasting. […] In FIG. 2, the graph provides blood glucose level in normal rats in mg/dl measured over a duration of 5 hours. The normal rats were fed with different fractions of the extract after four hours of fasting.

Structure (SMILES)	blood sugar level, 1 hr	blood sugar level, 3 hr	blood sugar level, 5 hr	blood sugar level, Fasting [mg/dL]	effect on blood glucose level (in words)
COc1ccc(Cl)cc1C(=O)NCCc1ccc(S(=O)(=O)NC(=O)NC2CCCCC2)cc1 [Glybenclamide, glybenclamide]	*58.8 ± 9.8 mg/dl	*43.3 ± 8.2 mg/dl	*43.2 ± 5.8 mg/dl	72.6 ± 8.6	significant (p<0.05) decrease in blood glucose level in the first hour
CN(C)C(=N)N=C(N)N [Metformin, metformin]	70.6 ± 3.0 mg/dL	68.3 ± 2.6 mg/dL	*61.5 ± 3.0 mg/dl	76.6 ± 4.1	significant (p<0.05) decrease in blood glucose level in the fifth hour
